From patent EP1743640A1, “Use of substituted pyrazoline compounds for the preparation of paediatric medicaments” (LABORATORIOS DEL DR. ESTEVE, S.A., priority 2005, dated 2007)
pKi: −log10 of the molar value.

Assays:
[1] = target: T1, CB1-Receptor (Homo sapiens, UniProt P21554); test: In-vitro determination of affinity to CB1 receptor (radioligand [3H]-CP55940); type: binding
T1 construct: purchased Receptor Biology, Inc
Method: (§1) I. In-vitro determination of affinity to CB1/CB2-Receptors
(§2) The in-vitro determination of the affinity of the substituted pyrazoline compounds to CB1/CB2-Rezeptors is carried out as described in the publication of Ruth A. Ross, Heather C. Brockie et al., "Agonist-inverse agonist characterization at CB1 and CB2 cannabinoid receptors of L-759633, L759656 and AM630", British Journal of Pharmacology, 126, 665-672, (1999), whereby the transfected human CB1 and CB2 receptors of Receptor Biology, Inc. are used. The radioligand used for both receptors is [^3H]-CP55940. The respective parts of the description is hereby incorporated by reference and forms part of the present disclosure.

[2] = target: T2, CB2-Receptor (Homo sapiens, UniProt P34972); test: In-vitro determination of affinity to CB2 receptor (radioligand [3H]-CP55940); type: binding
T2 construct: purchased Receptor Biology, Inc
T2 sequence (P34972 whole entry): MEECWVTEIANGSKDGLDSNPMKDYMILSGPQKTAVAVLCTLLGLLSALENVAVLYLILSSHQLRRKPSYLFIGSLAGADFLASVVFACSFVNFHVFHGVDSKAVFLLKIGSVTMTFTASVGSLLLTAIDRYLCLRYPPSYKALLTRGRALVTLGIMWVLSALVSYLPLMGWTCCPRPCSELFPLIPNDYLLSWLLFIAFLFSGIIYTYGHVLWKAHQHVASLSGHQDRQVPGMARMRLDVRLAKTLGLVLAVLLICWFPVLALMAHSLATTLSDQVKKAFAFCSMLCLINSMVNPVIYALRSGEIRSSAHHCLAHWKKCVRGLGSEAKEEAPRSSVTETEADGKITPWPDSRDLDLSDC
Method: as §1, §2

[3] = tested on: cannabinoid receptors; test: Mouse tetrad model, agonistic effect; type: in vivo, Male NMRI mice; set-up: key to Agonistic effect D: Sedation: % sedation = mean score (0-3 scale)/3 × 100; Agonistic effect A: Hot-Plate test / Agonistic effect B: Hypothermia / Agonistic effect C: Catalepsy: unit not given here; details: 5 mg/kg i.v.
Excerpt: (§3) Substances with affinity for cannabinoid receptors are known to produce a wide range of pharmacological effects. It is also known that intravenous administration of a substance with affinity for cannabinoid receptors in mice produces analgesia , hypothermia, sedation and catalepsy. Individually, none of these effects can be considered as proof that a tested substance has affinity for cannabinoid-receptors, since all of these effects are common for various classes of centrally active agents. However, substances, which show all of these effects, i.e. substances that are active in this so-called tetrad model are considered to have affinity for the cannabinoid receptors. It has further been shown that cannabinoid receptor antagonists are higly effective in blocking the effects of a cannabinoid agonist in the mouse tetrad model.
(§4) The tetrad model is described, for example, in the publication of A. C. Howlett et al, Intemational Union of Pharmacology XXVII. Classification of Cannabinoid Receptors, Pharmacol Rev 54, 161-202 , 2002 and David R. Compton et al., "In-vivo Characterization of a Specific Cannabinoid Receptor Antagonist (SR141716A) :Inhibition of Tetrahydrocannbinol- induced Responses and Apparent Agonist Activity", J. Pharmacol. Exp. Ther. 277 , 2, 586-594, 1996. The corresponding parts of the description are hereby incorporated by reference.
(§5) Male NMRI mice with a weight of 20-30 g (Harlan, Barcelona, Spain) are used in all of the following experiments.
(§6) Before testing in the behavioral procedures given below, mice are acclimatized to the experimental setting. Pre-Treatment control values are determined for analgesia hot plate latency (in seconds), rectal temperature, sedation and catalepsy.
(§7) In order to determine the agonistic activty of the substance to be tested, the mice are injected intravenously with the substance to be tested or the vehicle alone. 15 minutes after injection, latency in hot plate analgesia is measured. Rectal temperature, sedation and catalepsy are measured 20 minutes after injection.
(§8) The hot plate analgesia is determined according to the method described in Woolfe D. et al. "The evaluation of analgesic action of pethidine hydrochloride (Demerol)", J. Pharmacol. Exp. Ther. 80, 300-307,1944. The respective description is hereby incorporated by reference and forms part of the present disclosure.
(§9) The mice are placed on a hot plate (Harvard Analgesimeter) at 55 ± 0.5 °C until they show a painful sensation by licking their paws or jumping and the time for these sensations to occur is recorded. This reading is considered the basal value (B). The maximum time limit the mice are allowed to remain on the hot plate in absence of any painful response is 40 seconds in order to prevent skin damage. This period is called the cut-off time (PC).
(§10) Fifteen minuts after the administration of the substance to be tested, the mice are again placed on the hot plate and the afore described procedure is repeated. This period is called the post-treatment reading (PT).
(§11) The degree of analgesia is calculated from the formula : %MPE of Analgesia = (PT-B)/(PC-B) × 100 [formula]
(§12) Sedation and ataxia is determined according to the method described in Desmet L. K. C. et al. "Anticonvulsive properties of Cinarizine and Flunarizine in Rats and Mice", Arzneim. -Forsch. (Frug Res) 25, 9, 1975. The respective description is hereby incorporated by reference and forms part of the present disclosure.
The chosen scoring system is • 0: no ataxia; • 1: doubful; • 2: obvious calmness and quiet; • 3 pronounced ataxia; prior to as well as after treatment.
The percentage of sedation is determined according to the formula: %of sedation = arithmetic mean/3 × 100 [formula]
Hypothermia is determined according to the method described in David R. Compton et al. "In-vivo Characterization of a Specific Cannabinoid Receptor Antagonist (SR141716A) Inhibition of Tetrahydrocannbinol- induced Responses and Apparent Agonist Activity", J. Pharmacol Exp Ther. 277 , 2, 586-594, 1996. […]

[4] = tested on: cannabinoid receptors; test: Mouse tetrad model, antagonistic effect against Win 55212-2; type: in vivo, Male NMRI mice; set-up: unit not given here; details: 5 mg/kg i.v. prior to Win 55212-2 in a dose of 1,25mg/kg i.v.
Excerpt: as §3, §4, §5, §6, §7
In order to determine the antagonistic activity the identical procedure is used as for the determination of the agonistic effects, but with the difference that the substance to be evaluated for its antagonistic activity is injectected 5 minutes before the intravenous injection of 1.25 mg/kg Win-55,212 a known cannabinoid-receptor agonist.
as §8, §9, §10, §11, §12
The chosen scoring system is • 0: no ataxia; • 1: doubful; • 2: obvious calmness and quiet; • 3 pronounced ataxia; prior to as well as after treatment. […]

T1 sequence (P21554 whole entry): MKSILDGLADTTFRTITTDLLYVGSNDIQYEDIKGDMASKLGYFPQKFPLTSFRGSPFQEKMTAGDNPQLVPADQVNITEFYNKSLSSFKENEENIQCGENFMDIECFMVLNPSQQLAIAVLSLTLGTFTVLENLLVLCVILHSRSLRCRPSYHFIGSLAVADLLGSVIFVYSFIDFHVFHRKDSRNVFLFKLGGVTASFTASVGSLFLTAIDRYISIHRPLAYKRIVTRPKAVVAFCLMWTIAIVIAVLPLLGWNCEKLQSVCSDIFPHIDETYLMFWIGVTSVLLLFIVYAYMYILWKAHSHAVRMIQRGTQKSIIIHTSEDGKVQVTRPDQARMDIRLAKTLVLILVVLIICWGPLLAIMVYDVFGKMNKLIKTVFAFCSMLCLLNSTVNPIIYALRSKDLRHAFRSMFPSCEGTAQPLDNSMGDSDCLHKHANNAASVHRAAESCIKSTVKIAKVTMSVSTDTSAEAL

Structure (SMILES) | pKi [1] | pKi [2] | Agonistic effect A: Hot-Plate test [3] | Agonistic effect B: Hypothermia [3] | Agonistic effect C: Catalepsy [3] | Agonistic effect D: Sedation [3] | Antagonistic Effect A: Hot-Plate test [4] | Antagonistic Effect B: Hypothermia [4] | Antagonistic Effect C: Catalepsy [4] | Antagonistic Effect D: Sedation [4]
O=C(NN1CCCCC1)C1=NN(c2ccc(Cl)cc2Cl)C(c2ccc(Cl)cc2)C1 (stereo not shown) [Example 1, N-piperidinyl-5-(4-chlorophenyl)-1-(2,4-dichlorophenyl)-4,5-dihydro-1H-pyrazole-3-carboxamide] | > 7.60 | < 6.00 | 0 | 0 | 0 | 0 | 74 | 100 | 100 | 100
O=C(C1=NN(c2ccc(Cl)cc2Cl)C(c2ccc(Cl)cc2)C1)N1CCCCC1 (stereo not shown) [Example 5, (5-(4-Chloro-phenyl)-1-(2,4-dichloro-phenyl)-4,5-dihydro-1 H-pyrazol-3-yl]-piperidin-1-yl-methanone] |  | ~6.00 | 0 | 50 | 0 | 0 | 50 | 40 | 20 | 20
